Columns and labels:
[1] = reference standard value; cited from earlier work
[2] = Selectivity: fluorescence responses in the presence of biologically important analytes; conditions: Mito-HS 5 μM; PBS, 0.2% DMSO, pH 7.4, 37° C.; excitation 380 nm
Procedure: Fluorescence responses of Mito-HS (5 μM) in the presence of various biologically important analytes such as H2S, cysteine (Cys), H2O2, NaNO2, Cu(OAc)2, Zn(OAc)2, FeSO4, FeCl3, Na2CO3, GSH, and ascorbic acid (AA) NO, Na2S2O4 in aqueous solutions (in PBS, 0.2% DMSO, pH=7.4) at 37° C. were studied as shown in FIG. 5. Excitation wavelength was set at 380 nm and excitation and emission slit widths both set at 3 nm. Error bars were obtained from triplet experimental data. […] So, the experiment supported the proposed concept of using Mito-HS to track cellular H2S over other competing substances such as thiols.

3T3-L1 cells = assay: Fluorescence microscopy of endogenous H2S in cells; type: cell-based; conditions: 3T3-L1 normal cells, similar conditions, even after an hour
Procedure: (§1) Human cervical cancer cells (HeLa), breast cancer cells (MDA-MB-231), prostate cancer cells (DU 145) and 3T3-L1 fibroblast cells were cultured in DMEM high glucose media supplemented with 10% fetal bovine serum, 1% Penstrep, 0.2% Amphotericin B. The cells were grown overnight at 37° C. incubator with 5% CO2. HeLa, MDA-MB-231, DU 145, and 3T3-L1 cells were seeded at a density of 0.3×10^6 cells in 35 mm dish and kept overnight. The probe Mito-HS prepared in Example 1 was dissolved in 0.2% DMSO to make a stock concentration of 10 mM. The cells were treated with 5 μM of Mito-HS for 15 min. 300-550 nm excitation light was used to measure its fluorescence properties. Images were acquired using Zeiss Fluorescence Microscope (A1 Axiovert) with ×40 objective lens.
(§2) Fluorescence microscopic study was performed for Mito-HS treated and untreated cancer cells (HeLa, MDA-MB-231 and DU145 cells) and normal cell (3T3-L1 cells) by illuminating lights of 390 nm as excitation wavelength and monitoring the emission over 440-500 nm range. […] In contrast, Mito-HS pretreated normal cells were remained non-fluorescent under similar conditions even after an hour. The insufficient production of H2S in 3T3-L1 cells was responsible for their non-fluorescent images.

DU145 cells [3] = assay: In vitro cytotoxicity, MTT assay; type: cell-based, Human; conditions: 48 h incubation
Procedure: as §1
(§3) Prior to the application of probe in vitro, cytotoxicity study was performed to check its biocompatibility. HeLa, MDA-MB-231 and DU145 cells were considered to assess the cytotoxicity of Mito-HS by conventional MTT assay. The cells were treated with Mito-HS and incubated for 48 h.

MDA-MB-231 cells [4] = assay: In vitro cytotoxicity, MTT assay; type: cell-based, Human; conditions: MDA-MB-231, MTT, 48 h incubation
Procedure: as §1, §3

HeLa cells [5] = assay: In vitro cytotoxicity, MTT assay; type: cell-based, Human; conditions: 48 h incubation
Procedure: as §1, §3

[6] = Time-dependent fluorescence of Mito-HS in the presence of H2S; conditions: H2S (20.0 eq.)
Procedure: The environment of biological entities in cellular milieu is temporal, henceforth, the response time of probe for an analyte is crucial. Thus, time-dependent fluorescence data at λmax 450 nm were recorded in the presence of H2S (20.0 eq.). […] The rate of reaction of Mito-HS with H2S was calculated to be 5.4×10^−3 s^−1.

[7] = Fluorescence response of Mito-HS to variable concentrations of Na2S (H2S) in PBS
Procedure: UV-Vis and fluorescence spectroscopy was studied and changes of Mito-HS was recorded in variable concentrations of Na2S (0-200 μM) in PBS buffer solution containing 0.2% of DMSO at physiological pH (pH 7.4) to study the performance of the probe in H2S (Na2S) environment as shown in FIG. 3A-C. In FIG. 3A, the UV-Vis absorption band at λab 370 nm gradually decreases with the appearance of a new absorption band at λab 395 nm in the presence of variable concentrations of H2S.

DU145 cells [8] = assay: Fluorescence microscopy of endogenous H2S in cells; type: cell-based, Human
Procedure: as §1, §2
(§4) To assure that the fluorescence image of the Mito-HS treated cells were solely due to production of endogenous H2S instead of any other endogenous thiol-like entities such as GSH, cysteine and homocysteine, HeLa, MDA-MB-231 and DU145 cells were pretreated with a thiol-masking agent, here N-ethyl maleimide (NEM).

MDA-MB-231 cells [9] = assay: Fluorescence microscopy of endogenous H2S in cells; type: cell-based, Human
Procedure: as §1, §2, §4

HeLa cells [10] = assay: Fluorescence microscopy of endogenous H2S in cells; type: cell-based, Human
Procedure: as §1, §2, §4

[11] = Determination of fluorescence quantum yield; type: physicochemical; conditions: PBS 10 mM, pH 7.4, quinine standard
Procedure: The fluorescence quantum yield of Mito-HS was determined in the presence and absence of H2S in PBS buffer solution of 10 mM concentration and in the physiological pH of 7.4 taking quinine (ΦX=0.542) as standard. The fluorescence quantum yield was calculated by the equation: ΦS=ΦX (ASFS/AXFX), where, AS and AX are the absorbance of the sample and the reference, respectively; at the same excitation wavelength, FS and FX are the corresponding relative integrated fluorescence intensities. The quantum yield for Mito-HS calculated to be 0.045 was increased to 0.479 due to formation of FL-1 in the presence of H2S.

[12] = system: mitochondria of HeLa cells; assay: Co-localization experiment with MitoSox Red; type: cell-based, Human
Procedure: (§5) In order to evaluate the mito-targeting nature of Triphenylphosphonium ion of Mito-HS, a co-localization experiment was carried out with MitoSox Red, which is a mitochondria targeting dye, to make a comparison study.

[13] = system: mitochondria of MDA MB 231 cells; assay: Co-localization experiment with MitoSox Red; type: cell-based, Human
Procedure: as §5

[14] = system: mitochondria of DU145 cells; assay: Co-localization experiment with MitoSox Red; type: cell-based, Human
Procedure: as §5

[15] = Physiological pH stability study by fluorescence spectrometry; type: physicochemical
Description: The stability and reactivity of Mito-HS toward H2S in various physiological pH was studied in fluorescence spectrometry as shown in FIG. 6.

[16] = Detection of H2S in blood serum by fluorescence spectroscopy; conditions: fetal bovine serum (0.45 mM albumin protein), 37° C.; ex 380 nm, em 450 nm
Procedure: Fluorescence spectroscopy was performed for Mito-HS in fetal bovine serum at 37° C. Excitation and emission wavelengths were set at 380 nm and 450 nm respectively and slit widths at 3 nm.

C=C[C@H]1C[N@@]2CC[C@H]1C[C@H]2[C@H](O)c1ccnc2ccc(OC)cc12 [quinine]
fluorescence quantum yield of standard (ΦX) [1]: 0.542

[N-]=[N+]=Nc1ccc2cc(C(=O)NCC[P+](c3ccccc3)(c3ccccc3)c3ccccc3)c(=O)oc2c1 [Mito-HS]
fluorescence change with analytes other than H2S [2]: none of the analytes showed considerable fluorescence change other than H2S
cell fluorescence image (3T3-L1 cells): non-fluorescent
cytotoxicity (cell viability) (DU145 cells [3]): did not show cytotoxic behavior
cytotoxicity (cell viability) (MDA-MB-231 cells [4]): did not show cytotoxic behavior
cytotoxicity (cell viability) (HeLa cells [5]): did not show cytotoxic behavior
rate of reaction of Mito-HS with H2S ([6]; fluorescence at λmax 450 nm): 0.0054 s⁻¹
time at which fluorescence intensity plateaued ([6]; λmax 450 nm): > 40 min
H2S concentration at fluorescence saturation point ([7]; H2S 0-200 μM added, λmax 450 nm): 200 µM
fluorescence intensity increase in the presence of H2S ([7]; H2S 200 μM, λmax 450 nm, PBS pH 7.4, 0.2% DMSO): ~43 fold
H2S concentration range detectable (physiological condition) ([7]; PBS pH 7.4, 0.2% DMSO): 10-600 μM
lower detection limit for H2S ([7]; calculated by applying regression equation): 24.3 nM
cell fluorescence image (DU145 cells [8]; DU145, Mito-HS 5.0 μM, ex 390 nm, em 440-500 nm): strong fluorescence
cell fluorescence after pretreatment with thiol-masking agent NEM (DU145 cells [8]; DU145, NEM pretreated): equally fluorescent labeled
cell fluorescence image (MDA-MB-231 cells [9]; MDA-MB-231, Mito-HS 5.0 μM, ex 390 nm, em 440-500 nm): strong fluorescence
cell fluorescence after pretreatment with thiol-masking agent NEM (MDA-MB-231 cells [9]; MDA-MB-231, NEM pretreated): equally fluorescent labeled
cell fluorescence image (HeLa cells [10]; Mito-HS 5.0 μM, ex 390 nm, em 440-500 nm): strong fluorescence
cell fluorescence after pretreatment with thiol-masking agent NEM (HeLa cells [10]; NEM pretreated vs NEM untreated): equally fluorescent labeled
fluorescence quantum yield ([11]; absence of H2S): 0.045
fluorescence quantum yield ([11]; presence of H2S (formation of FL-1)): 0.479
subcellular localization [12]: predominantly in mitochondria
subcellular localization [13]: predominantly in mitochondria
subcellular localization [14]: predominantly in mitochondria
fluorescence intensity toward H2S at various pH ([15]; in H2S environment, pH 4-9): high fluorescence intensity was observed in H2S environment with sharp depreciation in lower pH range
pH range in which stable ([15]; in absence of H2S, fluorescence spectrometry): 4-9
increase of fluorescence intensity in blood serum [16]: 30 fold

Source: patent publication US10502742B2, “Flourescent exomarker probes for hydrogen sulfide detection” (AMRITA VISHWA VIDYAPEETHAM, priority 2017, dated 2019)
